From ChEMBL document CHEMBL1781941, “Synthesis and antitumor activity of 5-[1-(3-(dimethylamino)propyl)-5-halogenated-2-oxoindolin-(3Z)-ylidenemethyl]-2,4-dimethyl-1H-pyrrole-3-carboxamides” (Bioorg Med Chem Lett, 2011)

Legend:
HUVEC [1] = assay: Inhibition of VEGF-induced cell proliferation in HUVEC by MTT assay; type: functional, cell-based; settings: Homo sapiens
MDA-MB-231 [2] = assay: Antitumor activity against human MDA-MB-231 cells; type: functional, cell-based
IM-9 [3] = assay: Antitumor activity against human IM9 cells; type: functional, cell-based
K562 [4] = assay: Antitumor activity against human K562 cells; type: functional, cell-based
A549 [5] = assay: Antitumor activity against human A549 cells; type: functional, cell-based
HL-60 = assay: Antitumor activity against human HL60 cells; type: functional, cell-based
HUVEC [6] = assay: Inhibition of bFGF-induced cell proliferation in HUVEC by MTT assay; type: functional, cell-based; settings: Homo sapiens
IM-9 [7] = assay: Ratio of Sunitinib IC50 to compound IC50 for human IM9 cells; type: functional
MDA-MB-231 [8] = assay: Ratio of Sunitinib IC50 to compound IC50 for human MDA-MB-231 cells; type: functional
K562 [9] = assay: Ratio of Sunitinib IC50 to compound IC50 for human K562 cells; type: functional
A549 [10] = assay: Ratio of Sunitinib IC50 to compound IC50 for human A549 cells; type: functional

SMILES | IC50 (MDA-MB-231 [2]) [µM] | IC50 (IM-9 [3]) [µM] | IC50 (K562 [4]) [µM] | IC50 (A549 [5]) [µM] | IC50 (HL-60) [µM] | IC50 (HUVEC [1]) [µM] | IC50 (HUVEC [6]) [µM] | Ratio IC50 (IM-9 [7]) | Ratio IC50 (MDA-MB-231 [8]) | Ratio IC50 (K562 [9]) | Ratio IC50 (A549 [10])
Cc1[nH]c(/C=C2\C(=O)N(CCCN(C)C)c3ccc(F)cc32)c(C)c1C(=O)N(C)C | 19.2 | 17.9 | 13.6 | 25.2 | 14.8 | 5.23 | 19.9 |  |  |  | 
Cc1[nH]c(/C=C2\C(=O)N(CCCN(C)C)c3ccc(Cl)cc32)c(C)c1C(=O)N(C)C | 12 | 9.42 | 6.74 | 16 | 7.3 | 1.62 | 8.27 |  |  |  | 
CCN(CC)C(=O)c1c(C)[nH]c(/C=C2\C(=O)N(CCCN(C)C)c3ccc(F)cc32)c1C | 13.7 | 14.1 | 4.88 | 29.9 | 10.7 | 3.96 | 10.5 |  |  |  | 
CCN(CC)C(=O)c1c(C)[nH]c(/C=C2\C(=O)N(CCCN(C)C)c3ccc(Cl)cc32)c1C | 6.82 | 6.28 | 2.07 | 13.1 | 4.02 | 2.9 | 4.87 |  |  |  | 
Cc1[nH]c(/C=C2\C(=O)N(CCCN(C)C)c3ccc(F)cc32)c(C)c1C(=O)N1CCCC1 | 13.3 | 19.1 | 11.6 | 21.2 | 11.9 | 6.56 | 11.3 |  |  |  | 
Cc1[nH]c(/C=C2\C(=O)N(CCCN(C)C)c3ccc(F)cc32)c(C)c1C(=O)N1CCCCC1 | 11.5 | 4.83 | 4.09 | 18.7 | 4.39 | 4.06 | 5.27 |  |  |  | 
CCN(CC)CCNC(=O)c1c(C)[nH]c(/C=C2\C(=O)N(CCCN(C)C)c3ccc(Cl)cc32)c1C.Cl.Cl.Cl | 2.29 | 0.47 | 0.52 | 3.11 | 1.07 | 2.72 | 3.08 | 2.1 | 2.1 | 4.6 | 2.1
CCN(CC)CCNC(=O)c1c(C)[nH]c(/C=C2\C(=O)N(CCCN(C)C)c3ccc(F)cc32)c1C | 2.86 | 1.63 | 1.33 | 5.08 | 1.82 | 0.71 | 1.68 |  |  |  | 
Cc1[nH]c(/C=C2\C(=O)N(CCCN(C)C)c3ccc(Cl)cc32)c(C)c1C(=O)NCCN(C)C | 2.44 | 0.45 | 0.53 | 3.52 | 1.17 | 1.11 | 3.36 |  |  |  | 
Cc1[nH]c(/C=C2\C(=O)N(CCCN(C)C)c3ccc(F)cc32)c(C)c1C(=O)NCCN(C)C | 2.14 | 1.36 | 1.46 | 2.94 | 2.73 | 0.48 | 1.42 |  |  |  | 
CCN(CC)CCNC(=O)c1c(C)[nH]c(/C=C2\C(=O)Nc3ccc(F)cc32)c1C [SUNITINIB] | 4.51 | 1.35 | 2.41 | 6.61 | 3.53 | 2.75 | 4.04 |  |  |  | 

More lines, main results first:

IC50 (MDA-MB-231 [2]) [µM] | IC50 (IM-9 [3]) [µM] | IC50 (K562 [4]) [µM] | IC50 (A549 [5]) [µM] | IC50 (HL-60) [µM] | SMILES | IC50 (HUVEC [1]) [µM] | IC50 (HUVEC [6]) [µM] | Ratio IC50 (IM-9 [7]) | Ratio IC50 (MDA-MB-231 [8]) | Ratio IC50 (K562 [9]) | Ratio IC50 (A549 [10])
11.5 | 9.36 | 6.58 | 14 | 7.82 | Cc1[nH]c(/C=C2\C(=O)N(CCCN(C)C)c3ccc(Cl)cc32)c(C)c1C(=O)N1CCCC1 | 3.92 | 4.65 |  |  |  | 
5.68 | 4.49 | 2.14 | 7.33 | 3.99 | Cc1[nH]c(/C=C2\C(=O)N(CCCN(C)C)c3ccc(Cl)cc32)c(C)c1C(=O)N1CCCCC1 | 1.31 | 2.04 |  |  |  | 
5.06 | 1.47 | 1.41 | 6.78 | 3.56 | Cc1[nH]c(/C=C2\C(=O)N(CCCN(C)C)c3ccc(Cl)cc32)c(C)c1C(=O)N1CCN(C)CC1 | 1.34 | 2 |  |  |  | 
3.46 | 2.25 | 2.45 | 8.88 | 2.62 | CCN1CCN(C(=O)c2c(C)[nH]c(/C=C3\C(=O)N(CCCN(C)C)c4ccc(Cl)cc43)c2C)CC1 | 1.02 | 1.77 |  |  |  | 
9 | 4.06 | 5.27 | 11.1 | 7.59 | Cc1[nH]c(/C=C2\C(=O)N(CCCN(C)C)c3ccc(F)cc32)c(C)c1C(=O)N1CCN(C)CC1 | 2.99 | 5.64 |  |  |  | 
8.09 | 7.26 | 5.98 | 13.7 | 13.4 | CCN1CCN(C(=O)c2c(C)[nH]c(/C=C3\C(=O)N(CCCN(C)C)c4ccc(F)cc43)c2C)CC1 | 1.58 | 3.38 |  |  |  | 
